Data from patent US9695155B2, “Herbicidal substituted pyrimidinyloxy benzene compounds” (E. I. DU PONT DE NEMOURS AND COMPANY, priority 2013, dated 2017).

Assays:
[1] = test system: corn; assay: Test C preemergence; type: in vivo, Zea mays; settings: for Corn plant response rating: preemergence
How it was run: (§1)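 Whole-plant greenhouse test with surfactant-containing solvent formulation, applied preemergence to sown loam–sand pots or postemergence to 2–18 cm plants. Scored by eye 13 to 15 days on, 0–100 scale.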

[2] = test system: large (Lg) crabgrass; assay: Test C postemergence; type: in vivo, Digitaria sanguinalis; settings: for Plant response rating, Crabgrass, Large: Postemergence
How it was run: as §1

[3] = test system: giant foxtail; assay: Test C postemergence; type: in vivo, Setaria faberii; settings: for Plant response rating, Foxtail, Giant: Postemergence
How it was run: as §1

[4] = test system: ragweed; assay: Test A preemergence; type: in vivo, Ambrosia elatior
How it was run: (§2)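 Compounds in non-phytotoxic solvent with surfactant applied as soil spray preemergence, or postemergence to plants 2-10 cm at one- to two-leaf stage, in loam/sand. After approximately 10 days in greenhouse, injury rated visually versus untreated controls, 0 (no effect) to 100 (complete control).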

[5] = test system: Italian ryegrass; assay: Test A preemergence; type: in vivo, Lolium multiflorum
How it was run: as §2

[6] = test system: yellow nutsedge; assay: Test C preemergence; type: in vivo, Cyperus esculentus; settings: for Nutsedge, Yellow plant response rating: preemergence
How it was run: as §1

[7] = test system: yellow nutsedge; assay: Test C postemergence; type: in vivo, Cyperus esculentus; settings: for Plant response rating, Nutsedge, Yellow: Postemergence, scale 0 to 100 (0 no effect, 100 complete control)
How it was run: as §1

[8] = test system: barnyardgrass; assay: Test A postemergence; type: in vivo, Echinochloa crus-galli
How it was run: as §2

[9] = test system: johnsongrass; assay: Test C postemergence; type: in vivo, Sorghum halepense; settings: for Plant response rating, Johnsongrass: Postemergence
How it was run: as §1

[10] = test system: Italian ryegrass; assay: Test C preemergence; type: in vivo, Lolium multiflorum; settings: for Ryegrass, Italian plant response rating: preemergence
How it was run: as §1

[11] = test system: ragweed; assay: Test A postemergence; type: in vivo, Ambrosia elatior; settings: 0 to 100 scale where 0 is no effect and 100 is complete control
How it was run: as §2

[12] = test system: wheat, winter; assay: Test C preemergence; type: in vivo, Triticum aestivum; settings: for Wheat plant response rating: preemergence
How it was run: as §1

[13] = test system: wheat, winter; assay: Test C postemergence; type: in vivo, Triticum aestivum; settings: for Plant response rating, Wheat: Postemergence, scale 0 to 100 (0 no effect, 100 complete control)
How it was run: as §1

[14] = test system: corn; assay: Test A postemergence; type: in vivo, Zea mays
How it was run: as §2

[15] = test system: corn; assay: Test C postemergence; type: in vivo, Zea mays; settings: for Plant response rating, Corn: Postemergence
How it was run: as §1

[16] = test system: johnsongrass; assay: Test C preemergence; type: in vivo, Sorghum halepense; settings: for Johnsongrass plant response rating: preemergence
How it was run: as §1

[17] = 16 g ai/ha, scale 0 to 100 (0 no effect, 100 complete control)
[18] = 62 g ai/ha, scale 0 (no effect) to 100 (complete control)
[19] = 125 g ai/ha, scale 0 (no effect) to 100 (complete control)
[20] = Preemergence, 31 g ai/ha, scale 0 to 100, 0 no effect, 100 complete control
[21] = 16 g ai/ha, postemergence, visual rating, scale 0 to 100 (0 no effect, 100 complete control), 13 to 15 days
[22] = 31 g ai/ha, scale 0 to 100 (0 no effect, 100 complete control), 13 to 15 days
[23] = 62 g ai/ha, scale 0 to 100 (0 no effect, 100 complete control)
[24] = 125 g ai/ha, 0 to 100 scale where 0 is no effect and 100 is complete control
[25] = 500 g ai/ha, 0 to 100 scale, 0 no effect, 100 complete control, approx. 10 days
[26] = 500 g ai/ha, 0 to 100 scale, 0 no effect, 100 complete control

Q: For CC(C)c1cnn(-c2c(C#N)cccc2Oc2ncc(Cl)cn2)c1 [Compound 85], which “Corn plant response rating” value [1, 17] is on record?
A: 5

Q: And the “Corn plant response rating” value [1, 18]?
A: 5

Q: And the “Corn plant response rating” value [1, 19]?
A: 45

Q: What about the “Plant response rating, Corn” value [1, 20] of the same compound?
A: 10

Q: What about the “Crabgrass, Large plant response rating” value [2, 21] of the same compound?
A: 10

Q: What about the “Plant response rating (0 to 100), Crabgrass, Large” value ([2]; 125 g ai/ha, postemergence) of the same compound?
A: 10

Q: And the “Plant response rating, Crabgrass, Large” value [2, 22]?
A: 10

Q: What about the “Plant response rating, Crabgrass, Large” value [2, 23] of the same compound?
A: 5

Q: What about the “Foxtail, Giant plant response rating” value [3, 21] of the same compound?
A: 5

Q: And the “Plant response rating (0 to 100), Foxtail, Giant” value ([3]; 125 g ai/ha, postemergence)?
A: 15

Q: And the “Plant response rating, Foxtail, Giant” value [3, 22]?
A: 10

Q: And the “Plant response rating, Foxtail, Giant” value [3, 23]?
A: 10

Q: What about the “Plant response rating, Ragweed” value [4, 24] of the same compound?
A: 40

Q: What about the “Ragweed plant response rating” value [4, 25] of the same compound?
A: 60

Q: And the “Plant response rating, Ryegrass, Italian” value [5, 24]?
A: 0

Q: And the “Ryegrass, Italian plant response rating” value [5, 25]?
A: 40

Q: And the “Nutsedge, Yellow plant response rating” value [6, 17]?
A: 0

Q: And the “Nutsedge, Yellow plant response rating” value [6, 18]?
A: 5

Q: And the “Nutsedge, Yellow plant response rating” value [6, 19]?
A: 20

Q: What about the “Plant response rating, Nutsedge, Yellow” value [6, 20] of the same compound?
A: 0

Q: What about the “Plant response rating (0 to 100), Nutsedge, Yellow” value ([7]; 125 g ai/ha, postemergence) of the same compound?
A: 10

Q: What about the “Plant response rating, Nutsedge, Yellow” value ([7]; 31 g ai/ha, 13 to 15 days) of the same compound?
A: 5

Q: What about the “Plant response rating, Nutsedge, Yellow” value ([7]; 62 g ai/ha) of the same compound?
A: 5

Q: What about the “Plant response rating, Barnyardgrass” value [8, 24] of the same compound?
A: 90

Q: And the “Plant response rating, Barnyardgrass” value [8, 26]?
A: 90

Q: And the “Johnsongrass plant response rating” value [9, 21]?
A: 0

Q: What about the “Plant response rating (0 to 100), Johnsongrass” value ([9]; 125 g ai/ha, postemergence) of the same compound?
A: 10

Q: And the “Plant response rating, Johnsongrass” value [9, 22]?
A: 0

Q: And the “Plant response rating, Johnsongrass” value [9, 23]?
A: 5

Q: And the “Ryegrass, Italian plant response rating” value [10, 17]?
A: 0

Q: What about the “Ryegrass, Italian plant response rating” value [10, 18] of the same compound?
A: 0

Q: And the “Ryegrass, Italian plant response rating” value [10, 19]?
A: 50

Q: What about the “Plant response rating, Ryegrass, Italian” value [10, 20] of the same compound?
A: 0

Q: What about the “Plant response rating, Ragweed” value ([11]; 125 g ai/ha) of the same compound?
A: 50

Q: And the “Plant response rating, Ragweed” value ([11]; 500 g ai/ha)?
A: 60

Q: And the “Wheat plant response rating” value [12, 17]?
A: 0

Q: And the “Wheat plant response rating” value [12, 18]?
A: 0

Q: And the “Wheat plant response rating” value [12, 19]?
A: 5

Q: And the “Plant response rating, Wheat” value [12, 20]?
A: 0

Q: And the “Plant response rating (0 to 100), Wheat” value ([13]; 125 g ai/ha, postemergence)?
A: 0

Q: And the “Plant response rating, Wheat” value ([13]; 31 g ai/ha, 13 to 15 days)?
A: 0

Q: And the “Plant response rating, Wheat” value ([13]; 62 g ai/ha)?
A: 5

Q: And the “Plant response rating, Corn” value [14, 24]?
A: 30

Q: What about the “Plant response rating, Corn” value [14, 26] of the same compound?
A: 70

Q: What about the “Corn plant response rating” value [15, 21] of the same compound?
A: 5

Q: And the “Plant response rating (0 to 100), Corn” value ([15]; 125 g ai/ha, postemergence)?
A: 10

Q: What about the “Plant response rating, Corn” value [15, 22] of the same compound?
A: 5

Q: What about the “Plant response rating, Corn” value [15, 23] of the same compound?
A: 10

Q: And the “Johnsongrass plant response rating” value [16, 17]?
A: 15

Q: And the “Johnsongrass plant response rating” value [16, 18]?
A: 55

Q: What about the “Johnsongrass plant response rating” value [16, 19] of the same compound?
A: 85

Q: What about the “Plant response rating, Johnsongrass” value [16, 20] of the same compound?
A: 20
